Laboratory results reported in patent US10196403B2, “Compounds and compositions and uses thereof” (Sunovion Pharmaceuticals Inc., priority 2016, dated 2019).
Read-outs that look alike come from different tables or passages of the source.

Tests used:
Format in all cases: in vivo
[1] = tested on: Male Balb/cJ mice; test: Forced Swim test (FST); settings: 30 minute pretreatment; time immobile over 6 minute trial
Protocol: Forced Swim Test Procedures
The Forced Swim test (FST) is an indicator of the antidepressant-like activity of a test compound. Male Balb/cJ mice (26-31 g) were given a 30 minute pretreatment with vehicle (sterile water), sertraline control or test compound. The FST consists of one 6 minute session of forced swimming in individual opaque cylinders containing water at a temperature of 23±2° C. The mouse will swim before “giving up” and becoming immobile, the time spent immobile was recorded over the 6 minute trial. A compound with antidepressant-like activity will decrease the time the mouse is immobile over the 6 minute trial. Data were analyzed by analysis of variance (ANOVA) followed by post-hoc comparisons with Fisher Tests when appropriate.

[2] = tested on: Male C57Bl/6J mice; test: Amphetamine-induced hyperlocomotion assay; set-up: key: +++ = <1.0 mg/kg; ++ = 1-10 mg/kg; + = 10-30 mg/kg; NE = no effect; settings: AMPH 4 mg/kg ip; stimulant-induced hyperactivity
Protocol: Amphetamine-Induced Hyperlocomotion Assay
Amphetamine (AMPH) is frequently used to induce or mimic a manic-like state. The antimanic-like effects of test compounds were evaluated in male C57Bl/6J mice. Mice were acclimatized to the experimental room for at least 1 hour prior to testing. The mice (n=10 per group) were administered vehicle or test compound and placed in the open field (OF) chambers for 30 minutes of baseline activity measurement. The mice were then injected with either water or AMPH (4 mg/kg, ip) and placed back in the OF chambers for a 60-minute testing session during which, the effects of test compounds on stimulant-induced hyperactivity behaviors (total distance traveled, rearing and stereotypy) were measured. Data were analyzed by analysis of variance (ANOVA) followed by post-hoc comparisons with Fisher Tests when appropriate.

[3] = tested on: Male C57Bl/6J mice; test: Phencyclidine (PCP)-induced hyperlocomotion; settings: PCP 2.5 mg/kg s.c.; distance traveled
Protocol: Phencyclidine (PCP)-Induced Hyperlocomotion
The PCP-induced hyperlocomotion assay is an indicator of antipsychotic-like activity. Male C57Bl/6J mice (20-26 g) were administered vehicle or test compound and placed in holding cages for 30 minutes, after which they were placed in the locomotor activity chambers for 30 minutes of baseline capture. The test chambers are Plexiglas rectangular chambers (24×45 cm) that fit inside two steel frames (9.5×18 inches) and are fitted with two-dimensional 4×8 beam grids to monitor horizontal and vertical locomotor activity. Total distance traveled was measured from horizontal beam breaks as the animal traveled. Following the 30 minute baseline period, all […] were injected with saline or PCP (2.5 mg/kg, s.c.) and returned to the locomotor activity chambers for a 60 minute test session. A compound with antipsychotic-like activity will decrease the distance traveled following administration of PCP. Data were analyzed by analysis of variance (ANOVA) followed by post-hoc comparisons with Fisher Tests when appropriate.

[4] = tested on: mice; test: Neuropharmacological Assay (SmartCube); settings: for minimal effective dose: Mus musculus, read-out: POTENCY (minimal effective dose, MED); for AD: ADHD (SmartCube probability) / AG: analgesic (SmartCube probability) / AX: anxiolytic (SmartCube probability) / CE: cognitive enhancer (SmartCube probability) / DP: anti-depressant (SmartCube probability) / MS: mood stabilizer (SmartCube probability) / PS: anti-psychotic (SmartCube probability) / SD: sedative hypnotic (SmartCube probability) / UN: uncharacterized CNS activity (SmartCube probability): mice, i.p. 15 min before test, most efficacious dose(s) of 3 doses
Summary of the method: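 Compounds in NMP/PEG/propylene glycol given i.p. 15 min before automated video-based behavioral testing, at 3 doses; behavioral signature compared with a reference-compound database to give probability per drug class, reported at most efficacious dose. MED = dose (mpk) giving ≥50% total activity; doses typically 0.3–30 mpk.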

[5] = tested on: Adult male AJ mice; test: Tail suspension test (TST); set-up: key: +++ = <1.0 mg/kg; ++ = 1-10 mg/kg; + = 10-30 mg/kg; NE = no effect; settings: oral gavage 30 min before test; time immobile
From the text: The tail suspension test (TST) is a rodent screening test for potential (human) antidepressant drugs. It is based on the assumption that an animal will actively try to escape an aversive (stressful) stimulus. If escape is impossible, the animal will eventually stop trying (“give up”). In the TST, a mouse is suspended by the tail so that its body dangles in the air, head downward. Mice initially struggle to face upward and climb to a solid surface. When the animal stops struggling and hangs immobile it is considered to have “given up”. Shorter periods of immobility are characteristic of antidepressant-like activity. Accordingly, longer periods of immobility are considered indicative of a depressive-like state. It has been shown that treatment with an antidepressant drug will decrease the time the animal spends immobile. See generally L. Stem et al., Psychopharmacology (Berl). 1985; 85(3):367-70; B. Thierry et al., Psychopharmacology 1986; 90:284-85.
Procedure. Adult male AJ mice from Jackson Laboratories received vehicle (sterile water) or test compound orally by gavage, or the positive control desipramine (20 mg/kg, i.p.), in 10 mL/kg injection volumes, 30 min before being subjected to the Tail Suspension Test. In this test, mice are placed in the Tail Suspension chambers (white polyvinylchloride cubicles measuring 33×33×31.75 cm Med Associates, Inc. St. Albans, Vt.) by a piece of transparent (Scotch®) tape attached to the tail, from about the mid-tail, with approximately 2 cm of tape past the end of the tail for 10 min during which the time spent immobile is measured. A reduction in total time immobile relative to the vehicle condition indicates an antidepressant drug-like response.

[6] = MED = dose having 50% or more total activity in SmartCube

SMILES	FST: efficacious dose [1]	AMPH: efficacious dose [2]	PCP: efficacious dose [3]	minimal effective dose [4] [mg/kg]	AD: ADHD (SmartCube probability) [4]	AG: analgesic (SmartCube probability) [4]	AX: anxiolytic (SmartCube probability) [4]	CE: cognitive enhancer (SmartCube probability) [4]	DP: anti-depressant (SmartCube probability) [4]	MS: mood stabilizer (SmartCube probability) [4]	PS: anti-psychotic (SmartCube probability) [4]	SD: sedative hypnotic (SmartCube probability) [4]	UN: uncharacterized CNS activity (SmartCube probability) [4]	TST: efficacious dose [5]	minimal effective dose [4, 6] [mg/kg]	POTENCY (minimal effective dose, MED) [4, 6]
CNC[C@@H]1OCCc2ccc3c(c21)OCO3 [Example 2, (R)-1-(6,9-dihydro-7H-[1,3]dioxolo[4,5-h]isochromen-9-yl)-N-methylmethanamine]	+++ (+++ = <1.0 mg/kg)	NE	+++ (+++ = <1.0 mg/kg)	< 3	+ (LOQ≤ + <5%)	++ (5%≤ ++ <25%)	++ (5%≤ ++ <25%)	++ (5%≤ ++ <25%)	+++ (25%≤ +++ <50%)	++ (5%≤ ++ <25%)	++ (5%≤ ++ <25%)	+ (LOQ≤ + <5%)	+++ (25%≤ +++ <50%)			
CNC[C@@H]1OCCc2c(F)cccc21 [Example 14, (R)-1-(5-fluoroisochroman-1-yl)-N-methylmethanamine]		+ (+ = 10-30 mg/kg)			+ (LOQ≤ + <5%)	++ (5%≤ ++ <25%)	++ (5%≤ ++ <25%)	++ (5%≤ ++ <25%)	++++ (50%≤ ++++)	++ (5%≤ ++ <25%)	++ (5%≤ ++ <25%)	++ (5%≤ ++ <25%)	+++ (25%≤ +++ <50%)	+ (+ = 10-30 mg/kg)	< 3	
CNC[C@@H]1OCCc2cc(F)ccc21 [Example 17, (R)-1-(6-fluoroisochroman-1-yl)-N-methylmethanamine]		++ (++ = 1-10 mg/kg)			+ (LOQ≤ + <5%)	++ (5%≤ ++ <25%)	++ (5%≤ ++ <25%)	+++ (25%≤ +++ <50%)	++ (5%≤ ++ <25%)	+ (LOQ≤ + <5%)	+++ (25%≤ +++ <50%)	+ (LOQ≤ + <5%)	++ (5%≤ ++ <25%)	NE	< 3	
CNC[C@@H]1OCCc2cccc(F)c21 [Example 26, (R)-1-(8-fluoroisochroman-1-yl)-N-methylmethanamine]	+++ (+++ = <1.0 mg/kg)	+ (+ = 10-30 mg/kg)	+++ (+++ = <1.0 mg/kg)		+ (LOQ≤ + <5%)	++ (5%≤ ++ <25%)	++ (5%≤ ++ <25%)	++ (5%≤ ++ <25%)	++++ (50%≤ ++++)	+ (LOQ≤ + <5%)	++ (5%≤ ++ <25%)	++ (5%≤ ++ <25%)	+++ (25%≤ +++ <50%)	NE	< 3	
CNC[C@H]1OCCc2ccc3c(c21)OCC3 [Example 106, (S)-N-methyl-1-(2,3,6,9-tetrahydro-7H-furo[3,2-h]isochromen-9-yl)methanamine]					+ (LOQ≤ + <5%)	+ (LOQ≤ + <5%)	++ (5%≤ ++ <25%)	+++ (25%≤ +++ <50%)	++ (5%≤ ++ <25%)	+ (LOQ≤ + <5%)	++ (5%≤ ++ <25%)	++ (5%≤ ++ <25%)	+ (LOQ≤ + <5%)		10 to 30	
CNC[C@@H]1OCCc2ccc3c(c21)CCO3 [Example 107, (R)-N-methyl-1-(3,4,8,9-tetrahydro-1H-furo[2,3-h]isochromen-1-yl)methanamine]					+ (LOQ≤ + <5%)	+ (LOQ≤ + <5%)	++ (5%≤ ++ <25%)	+ (LOQ≤ + <5%)	++ (5%≤ ++ <25%)	+ (LOQ≤ + <5%)	++ (5%≤ ++ <25%)	++ (5%≤ ++ <25%)	+++ (25%≤ +++ <50%)		3 to 10	
CNC[C@H]1OCCc2ccc3c(c21)CCO3 [Example 108, (S)-N-methyl-1-(3,4,8,9-tetrahydro-1H-furo[2,3-h]isochromen-1-yl)methanamine]					+ (LOQ≤ + <5%)	+ (LOQ≤ + <5%)	+ (LOQ≤ + <5%)	+ (LOQ≤ + <5%)	++ (5%≤ ++ <25%)	+ (LOQ≤ + <5%)	++ (5%≤ ++ <25%)	+ (LOQ≤ + <5%)	++++ (50%≤ ++++)		3 to 10	
CNC[C@@H]1OCCc2ccc3c(c21)COC3 [Example 109]					+ (LOQ≤ + <5%)	+ (LOQ≤ + <5%)	++ (5%≤ ++ <25%)	+ (LOQ≤ + <5%)	++ (5%≤ ++ <25%)	+ (LOQ≤ + <5%)	++++ (50%≤ ++++)	++ (5%≤ ++ <25%)	++ (5%≤ ++ <25%)			B (>3 to 10 mpk)
